Experimental data: US6541509B2 (priority 2000, dated 2003)
Read-outs that look alike come from different tables or passages of the source.

What was measured:
A549-T12 cells [1] = format: cell-based, human; details: for Cell-cycle profile: 48 h, 2 nM Taxol, discodermolide 2 or 6 nM, other drugs as in FIG. 5; for Reversal of the G2-M-phase block induced by Taxol removal: 48 h without Taxol, then 48 h with drug, discodermolide 0.001-24.0 nM, data not shown
Procedure: Cells were incubated with the different agents for 48 h, fixed, stained with propidium iodide, and analyzed by flow cytometry, as described below.
For the drug substitution experiments, A549-T12 cells were seeded at a density of 3×10^4 cells/mL in 75-cm^2 flasks, and treated with various drugs at the indicated concentrations (FIG. 5). After 48 h, both adherent and nonadherent cells were harvested, fixed in 70% ethanol for at least 20 min, permeabilized with 0.1% Triton X-100 in PBS for 3 min, and stained for 30 min at 37° C. with 10 μg/mL of propidium iodide (Sigma) in a PBS solution containing 1 μg/mL of RNase A (Boehringer Mannheim, Indianapolis, Ind.). Cell-cycle analysis was performed using the Becton Dickinson FACScan and the CellQuest program. […] The cells then were prepared as described above.

A549-T12 cells [2] = format: cell-based, human; details: 48 h; concentrations as in FIG. 4
Procedure: A549-T12 cells were grown on cover slips and treated with the different compounds for 48 h. Cells were then permeabilized, fixed, and incubated with an α-tubulin antibody, as described below.
A549-T12 cells, which were grown to subconfluency on glass cover slips in the absence of drug or in the presence of different drugs at varying concentrations (FIG. 4), were prepared for immunofluorescence microscopy as previously described, with the following modifications: (a) nonspecific binding was blocked using 10% normal goat serum in PBS for 30 min at 37° C.; (b) cells were incubated with a monoclonal antibody to α-tubulin (Sigma; 1:100 dilution; 5% normal goat serum in PBS), followed by a Cy3-conjugated anti-mouse IgG secondary antibody (Amersham, Arlington Heights, Ill.; 1:1000 dilution); and (c) slides were analyzed using the Zeiss Axioskop microscope (rhodamine filter) at 63× magnification.

microtubules = experiment: In vitro microtubule polymerization assay; format: biochemical; details: in the absence of GTP
SKVLB = experiment: cells; format: cell-based, human; details: for IC50: SKVLB, 6 days, mean ± SE, read-out: IC50 (drug concentration that inhibits cell division by 50%); for Fold resistance (ratio of IC50, SKVLB and SKOV3): after 6 days
Procedure: (§1) The drug-sensitive mouse macrophage-like cell line, J774.2, and its Taxol-resistant cell line, J7-T3-1.6, were maintained as previously described. […] Drug-sensitive and vinblastine-resistant human ovarian carcinoma cell lines, SKOV3 and SKVLB, were obtained from Dr. V. Ling, and were maintained as previously described. Both J7-T3-1.6 and SKVLB cells overexpress P-glycoprotein. SKVLB cells were grown in the presence of 1 μM vinblastine. The Taxol-resistant human non-small-cell lung carcinoma cell line, A549-T12, was derived from the drug-sensitive A549 cell line; both cell lines were maintained as previously described.
(§2) For the A549 cell lines, cells were seeded at a density of 1×10^4 cells/mL (A549) or 3×10^4 cells/mL (A549-T12), in triplicate, 6-well plates, and allowed to attach for 24 h. […] The SKOV3 and SKVLB cell lines were assayed in a similar manner. Cells were seeded in triplicate, at a density of 6×10^3 cells/mL (SKOV3) or 12×10^3 cells/mL (SKVLB), in 6-well plates, and incubated with a drug for 6 days. […] J774.2 and J7-T3-1.6 cells were plated at a density of 2×10^4 cells/well, in 96-well plates, and allowed to attach overnight. Serial dilutions of each drug were performed, and the cells were incubated for 72 h. The IC50 was determined using the CellTiter 96™ AQueous nonradioactive cell proliferation assay (Promega, Madison, Wis.), which correlates with the number of live cells. Different methods for determining IC50 values were used, depending on the most accurate method for each particular set of cell lines.

A549 = experiment: cells; format: cell-based, human; details: for IC50: read-out: IC50 (drug concentration that inhibits cell division by 50%)
Procedure: as §1, §2

A549-T12 = experiment: cells; format: cell-based, human; details: for IC50: read-out: IC50 (drug concentration that inhibits cell division by 50%)
Procedure: as §1, §2

SKOV3 = experiment: cells; format: cell-based, human; details: SKOV3, 6 days, mean ± SE; for IC50: read-out: IC50 (drug concentration that inhibits cell division by 50%)
Procedure: as §1, §2

J774.2 = experiment: cells; format: cell-based, mouse; details: J774.2, 72 h, mean ± SE; for IC50: read-out: IC50 (drug concentration that inhibits cell division by 50%)
Procedure: as §1, §2

J7-T3-1.6 = experiment: cells; format: cell-based, mouse; details: for IC50: J7-T3-1.6, 72 h, mean ± SE, read-out: IC50 (drug concentration that inhibits cell division by 50%); for Fold resistance (ratio of IC50 J7-T3-1.6 to J774.2): after 72 h
Procedure: as §1, §2

A549 cells = experiment: Methylene blue growth assay; format: cell-based, human; details: 8 to 11 days
Procedure: (§3) FIG. 2 illustrates that A549-T12 cells require Taxol for normal growth. A549 and A549-T12 cells were grown in the absence or presence of various concentrations of Taxol for 8 to 11 days. The cells were then stained with methylene blue, as described below.
(§4) Cells were seeded in 24-well plates at a density of 400 cells/well (A549) or 500 cells/well (A549-T12), and treated with different concentrations of Taxol. Following 8 to 11 days of growth, the medium was removed, and cells were stained with 0.5% methylene blue (Sigma) in 50% ethanol for 20 min, then rinsed with distilled water (FIG. 2).

A549-T12 cells [3] = experiment: Methylene blue growth assay; format: cell-based, human; details: 8 to 11 days
Procedure: as §3, §4

[4] = Homo sapiens, Ovarian carcinoma cell, 144 h
[5] = A549-T12, 72 h, cells maintained in 2 nM Taxol, mean ± SE
[6] = Homo sapiens, A549, 72 h, mean ± SE
[7] = Homo sapiens, A549-T12, 72 h, cells maintained in 2 nM Taxol, mean ± SE

| IC50 (SKVLB; [4]) [µM] | IC50 (SKOV3; Homo sapiens, SK-OV-3, 144 h) [µM] | IC50 (J774.2; Mus musculus) [µM] | IC50 (J7-T3-1.6; Mus musculus) [µM] | SMILES | Cell-cycle profile (A549-T12 cells [1]) | Reversal of the G2-M-phase block induced by Taxol removal (A549-T12 cells [1]) | Microtubule cytoskeleton / ability to substitute for Taxol (A549-T12 cells [2]) | Assembly of microtubules (microtubules) | Fold resistance (ratio of IC50, SKVLB and SKOV3) (SKVLB) | IC50 (drug concentration that inhibits cell division by 50%) (SKOV3) | IC50 (drug concentration that inhibits cell division by 50%) (J774.2) | Fold resistance (ratio of IC50 J7-T3-1.6 to J774.2) (J7-T3-1.6) [fold] | IC50 (SKVLB) [µM] | IC50 (drug concentration that inhibits cell division by 50%) (A549; A549, 72 h, mean ± SE) | IC50 (A549; A549, 72 h, mean ± SE) [µM] | Fold resistance (ratio of IC50 A549-T12 to A549) (A549-T12; 72 h) [fold] | IC50 (A549-T12; [5]) [µM] | IC50 (SKOV3) [µM] | IC50 (J774.2) [µM] | IC50 (J7-T3-1.6) [µM] | other results |
| --- | --- | --- | --- | --- | --- | --- | --- | --- | --- | --- | --- | --- | --- | --- | --- | --- | --- | --- | --- | --- | --- |
|  |  |  |  | C/C(=C\c1csc(C)n1)[C@@H]1C[C@@H]2O[C@@H]2CCC[C@H](C)[C@H](O)[C@@H](C)C(=O)C(C)(C)[C@@H](O)CC(=O)O1 [EpoA, epothilone A] | normal cell-cycle profile | return of a normal cell-cycle profile | normal microtubule cytoskeleton |  | 18.5 fold | decreased but similar responses |  | 16 | 0.19 ± 0.014 | comparable activities | 0.0064 ± 0.002 | 5.3 | 0.034 ± 0.0031 | 0.0103 ± 0.0045 | 0.0106 ± 0.002 | 0.17 ± 0.014 | Fold resistance (ratio of IC50, SKVLB and SKOV3) (SKVLB; listed as epothilone A): low-level cross-resistance; Fold resistance (ratio of IC50 A549-T12 to A549) (A549-T12; 72 h, listed as epothilone A): cross-resistance; Fold resistance (ratio of IC50 J7-T3-1.6 to J774.2) (J7-T3-1.6; listed as epothilone A): low resistance |
|  |  |  |  | C/C(=C\c1csc(C)n1)[C@@H]1C[C@@H]2O[C@]2(C)CCC[C@H](C)[C@H](O)[C@@H](C)C(=O)C(C)(C)[C@@H](O)CC(=O)O1 [EpoB, epothilone B] | normal cell-cycle profile | return of a normal cell-cycle profile | normal microtubule cytoskeleton |  | 19.0 fold | highest sensitivity | most sensitive | 30 | 0.0095 ± 0.0021 | more potent | 0.0007 ± 0.0001 | 4.7 | 0.0033 ± 0.00072 | 0.0005 ± 9e-05 | 0.0004 ± 0.0001 | 0.012 ± 0.004 | Fold resistance (ratio of IC50, SKVLB and SKOV3) (SKVLB; listed as epothilone B): low-level cross-resistance; Fold resistance (ratio of IC50 A549-T12 to A549) (A549-T12; 72 h, listed as epothilone B): cross-resistance; Fold resistance (ratio of IC50 J7-T3-1.6 to J774.2) (J7-T3-1.6; listed as epothilone B): low resistance |
| 13.3 | 0.002 ± 0.0001 | 0.067 ± 0.007 | 18 | CC(=O)O[C@H]1C(=O)[C@@]2(C)[C@H]([C@H](OC(=O)c3ccccc3)[C@]3(O)C[C@H](OC(=O)[C@H](O)[C@@H](NC(=O)c4ccccc4)c4ccccc4)C(C)=C1C3(C)C)[C@]1(OC(C)=O)CO[C@@H]1C[C@@H]2O [Taxol, paclitaxel] | normal cell-cycle profile | return of a normal cell-cycle profile | normal microtubule cytoskeleton | enhanced the assembly of stable microtubules | 6,666.5 fold | decreased but similar responses |  | 268.7 |  |  |  |  |  |  |  |  | Cell growth (A549 cells; 6 nM Taxol): cytotoxic; Cell growth (A549 cells; subnanomolar concentrations of Taxol): unaffected; Cell growth (A549-T12 cells [3]; 6 nM Taxol): grew normally; Taxol level required by the cell line for normal growth (A549-T12 cells [3]): 2 to 6 nM; IC50 (A549; [6]): 0.002 ± 0.00014 µM; IC50 (A549-T12; [7]): 0.0187 ± 0.0009 µM |
| 1.88 | 0.0011 ± 0.0001 | 0.006 ± 0.0027 | 0.767 ± 0.351 | CC[C@]1(O)C[C@@H]2CN(CCc3c([nH]c4ccccc34)[C@@](C(=O)OC)(c3cc4c(cc3OC)N(C)[C@H]3[C@@](O)(C(=O)OC)[C@H](OC(C)=O)[C@]5(CC)C=CCN6CC[C@]43[C@@H]65)C2)C1 [VBL, vinblastine] | mitotic block | irreversible | Neither discodermolide nor vinblastine was able to substitute for Taxol |  | 1,709.4 fold | highest sensitivity |  | 127.8 |  |  |  | 1.0 |  |  |  |  | IC50 (A549; [6]): 0.0018 µM; Fold resistance (ratio of IC50 A549-T12 to A549) (A549-T12; 72 h, listed as vinblastine): no cross-resistance; IC50 (A549-T12; [7]): 0.0018 ± 0.00018 µM; Fold resistance (ratio of IC50 J7-T3-1.6 to J774.2) (J7-T3-1.6; listed as vinblastine): significant cross-resistance |

| SMILES | IC50 (SKVLB; [4]) [µM] | IC50 (SKOV3; Homo sapiens, SK-OV-3, 144 h) [µM] | IC50 (J774.2; Mus musculus) [µM] | IC50 (J7-T3-1.6; Mus musculus) [µM] | Cell-cycle profile (A549-T12 cells [1]) | Reversal of the G2-M-phase block induced by Taxol removal (A549-T12 cells [1]) | Microtubule cytoskeleton / ability to substitute for Taxol (A549-T12 cells [2]) | Assembly of microtubules (microtubules) | Fold resistance (ratio of IC50, SKVLB and SKOV3) (SKVLB) | IC50 (drug concentration that inhibits cell division by 50%) (SKOV3) | IC50 (drug concentration that inhibits cell division by 50%) (J774.2) | Fold resistance (ratio of IC50 J7-T3-1.6 to J774.2) (J7-T3-1.6) [fold] | IC50 (SKVLB) [µM] | IC50 (drug concentration that inhibits cell division by 50%) (A549; A549, 72 h, mean ± SE) | IC50 (A549; A549, 72 h, mean ± SE) [µM] | Fold resistance (ratio of IC50 A549-T12 to A549) (A549-T12; 72 h) [fold] | IC50 (A549-T12; [5]) [µM] | IC50 (SKOV3) [µM] | IC50 (J774.2) [µM] | IC50 (J7-T3-1.6) [µM] | other results |
| --- | --- | --- | --- | --- | --- | --- | --- | --- | --- | --- | --- | --- | --- | --- | --- | --- | --- | --- | --- | --- | --- |
| CO[C@]12C=C[C@](C)(O1)[C@@H](OC(=O)/C=C/c1cn(C)cn1)C[C@H]1C(C)=CC[C@H](C(C)C)[C@H]1/C=C\2CO[C@@H]1OC[C@@H](O)[C@@H](O)[C@@H]1OC(C)=O [Eleu, eleutherobin] | > 5 | 0.0082 ± 0.0038 | 0.394 ± 0.0058 | > 5 | normal cell-cycle profile | return of a normal cell-cycle profile | normal microtubule cytoskeleton | enhanced the assembly of stable microtubules | >609.8 fold | decreased but similar responses | quite insensitive | >12.7 |  |  |  |  |  |  |  |  | Fold resistance (ratio of IC50, SKVLB and SKOV3) (SKVLB; listed as eleutherobin): definite cross-resistance; IC50 (drug concentration that inhibits cell division by 50%) (A549): comparable activities; IC50 (A549; Homo sapiens, A549, 72 h): 0.014 ± 0.0028 µM; IC50 (A549-T12; Homo sapiens, 72 h): 0.069 ± 0.0113 µM |
